Consider one compound from ChEMBL document CHEMBL3232739, “Discovery of a potent and dissociated non-steroidal glucocorticoid receptor agonist containing an alkyl carbinol pharmacophore” (Bioorg Med Chem Lett, 2014).

The subject of series [1] is Mus musculus. Briefly: Toxicity in po dosed B10.RIII mouse assessed as triglyceride level in serum administered po qd for 5 weeks relative to control. The class given is organism-based. As to conditions: in vivo, 840 h.
For a further series, the target named is T1, Progesterone receptor (Homo sapiens, UniProt P06401).
T1 sequence (P06401 whole entry): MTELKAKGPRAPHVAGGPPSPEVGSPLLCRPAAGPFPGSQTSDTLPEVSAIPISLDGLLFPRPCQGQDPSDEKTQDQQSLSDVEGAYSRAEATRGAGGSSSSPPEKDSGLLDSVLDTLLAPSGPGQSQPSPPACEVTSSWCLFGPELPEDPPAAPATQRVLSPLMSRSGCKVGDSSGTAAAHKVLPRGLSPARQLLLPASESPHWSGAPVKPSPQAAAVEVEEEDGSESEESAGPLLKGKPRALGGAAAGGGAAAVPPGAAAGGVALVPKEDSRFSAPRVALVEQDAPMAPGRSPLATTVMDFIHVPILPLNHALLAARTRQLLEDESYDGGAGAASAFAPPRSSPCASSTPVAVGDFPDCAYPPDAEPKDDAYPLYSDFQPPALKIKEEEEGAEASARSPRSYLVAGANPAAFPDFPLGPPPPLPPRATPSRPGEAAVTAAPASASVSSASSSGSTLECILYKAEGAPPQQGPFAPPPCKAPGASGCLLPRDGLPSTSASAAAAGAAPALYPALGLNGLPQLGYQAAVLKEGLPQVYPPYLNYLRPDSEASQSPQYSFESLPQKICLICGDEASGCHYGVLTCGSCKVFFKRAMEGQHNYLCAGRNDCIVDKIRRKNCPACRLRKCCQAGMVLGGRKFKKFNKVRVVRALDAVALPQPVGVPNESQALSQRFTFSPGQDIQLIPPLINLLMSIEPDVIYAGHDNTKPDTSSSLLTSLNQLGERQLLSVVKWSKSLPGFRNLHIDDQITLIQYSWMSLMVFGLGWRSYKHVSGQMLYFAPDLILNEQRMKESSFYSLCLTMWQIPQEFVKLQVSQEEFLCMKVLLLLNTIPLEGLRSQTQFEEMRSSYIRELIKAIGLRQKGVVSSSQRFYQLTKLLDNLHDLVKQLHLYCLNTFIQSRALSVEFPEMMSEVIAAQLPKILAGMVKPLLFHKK
Briefly: Displacement of TAMRA-labeled mifepristone from progesterone receptor (unknown origin) by fluorescence polarization assay.

In series [2] the target is T2, Glucocorticoid receptor (Homo sapiens, UniProt P04150).
T2 sequence (P04150 whole entry): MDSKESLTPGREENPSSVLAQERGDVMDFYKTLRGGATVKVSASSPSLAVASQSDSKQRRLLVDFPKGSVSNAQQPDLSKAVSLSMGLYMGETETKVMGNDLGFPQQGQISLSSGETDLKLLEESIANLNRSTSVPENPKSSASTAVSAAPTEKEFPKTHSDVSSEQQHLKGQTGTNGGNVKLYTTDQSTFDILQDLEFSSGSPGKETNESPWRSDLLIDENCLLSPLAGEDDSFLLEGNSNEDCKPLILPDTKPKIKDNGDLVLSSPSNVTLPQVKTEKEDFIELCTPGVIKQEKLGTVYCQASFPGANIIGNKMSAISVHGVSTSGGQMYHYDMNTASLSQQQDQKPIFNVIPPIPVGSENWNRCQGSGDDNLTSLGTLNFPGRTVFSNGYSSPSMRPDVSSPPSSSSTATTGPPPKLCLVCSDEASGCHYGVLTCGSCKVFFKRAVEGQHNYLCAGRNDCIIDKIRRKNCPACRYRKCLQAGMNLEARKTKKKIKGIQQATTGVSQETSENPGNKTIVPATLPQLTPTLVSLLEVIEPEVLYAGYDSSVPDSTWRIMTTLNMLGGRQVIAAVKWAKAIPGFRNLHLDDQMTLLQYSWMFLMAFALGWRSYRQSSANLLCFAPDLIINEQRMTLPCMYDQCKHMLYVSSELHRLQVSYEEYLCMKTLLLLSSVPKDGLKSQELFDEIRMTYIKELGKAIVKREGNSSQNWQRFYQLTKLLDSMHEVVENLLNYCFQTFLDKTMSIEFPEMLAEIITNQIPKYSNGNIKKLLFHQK
Briefly: Transactivation of glucocorticoid receptor in human HeLa cells harboring MMTV promoter at 2 uM by luciferase reporter gene assay relative to dexamethasone. The series is classed as cell-based. As to conditions: read-out: Efficacy.

Series [3] can be described thus: Clearance in Sprague-Dawley rat at 2 mg/kg, iv. The series is classed as ADME, organism-based. Also on record: dose 2 mg/kg, route intravenous. The settings on record: in vivo.
A short description of series [4]: Mean residence time in Sprague-Dawley rat at 2 mg/kg, iv. The series is classed as ADME, organism-based. More on the design: dose 2 mg/kg, route intravenous. As to conditions: in vivo.
A short description of series [5]: Cmax in Sprague-Dawley rat at 30 mg/kg, po. The series is classed as ADME, organism-based. More on the design: dose 30 mg/kg, route oral. As to conditions: in vivo.
Series [6] is described as follows: AUC (infinity) in Sprague-Dawley rat at 30 mg/kg, po. The series is classed as ADME, organism-based. More on the design: time infinity, dose 30 mg/kg, route oral. As to conditions: plasma.
Series [7] is described as follows: Equilibrium solubility of the compound at pH 7.4. The class given is physicochemical. The settings on record: buffer.
Series [8] is described as follows: Permeability across basolateral to apical side in human Caco2 cells. The class given is ADME, cell-based. As to conditions: Caco-2, read-out: permeability. Background: Caco-2 monolayers are a common model of the intestinal barrier.
For series [9], the system named is Mus musculus. Briefly: Antiarthritic activity in B10.RIII mouse collagen/complete Freund's adjuvant-induced arthritis model assessed as reduction of disease score at 30 mg/kg, po qd for 5 weeks relative to control. The series is classed as functional. Also on record: scale not given: the % may be the effect or the level left.
Series [10] relates to Mus musculus. In words: Antiinflammatory activity in mouse assessed as inhibition of LPS-induced TNFalpha production at 1 mg/kg, po. The series is classed as functional.
For series [11], the system named is Mus musculus. In words: Antiinflammatory activity in po dosed mouse assessed as inhibition of LPS-induced TNFalpha production. The class given is functional.
Series [12] deals with Mus musculus. In words: Antiarthritic activity in B10.RIII mouse collagen/complete Freund's adjuvant-induced arthritis model assessed as reduction of disease score at 100 mg/kg, po qd for 5 weeks relative to control. The series is classed as functional. Also on record: scale not given: the % may be the effect or the level left.
The test system of series [13] is Mus musculus. Briefly: Toxicity in B10.RIII mouse assessed as free fatty acid level in serum at 30 mg/kg, po qd for 5 weeks relative to control. The series is classed as organism-based. The settings on record: in vivo, 840 h. Also on record: dose 30 mg/kg, route oral.
In series [14] the test system is Mus musculus. Briefly: Toxicity in B10.RIII mouse assessed as free fatty acid level in serum at 100 mg/kg, po qd for 5 weeks relative to control. The class given is organism-based. More on the design: dose 100 mg/kg, route oral. The settings on record: in vivo, 840 h.
The test system of series [15] is Mus musculus. In words: Toxicity in B10.RIII mouse assessed as insulin level in serum at 30 mg/kg, po qd for 5 weeks relative to control. The class given is organism-based. Also on record: dose 30 mg/kg, route oral. As to conditions: in vivo, 840 h.
For series [16], the system named is Mus musculus. In words: Antiarthritic activity in po dosed B10.RIII mouse collagen/complete Freund's adjuvant-induced arthritis model assessed as reduction of disease score administered po qd for 5 weeks relative to control. The class given is functional. The settings on record: 840 h.
Series [17] deals with T2, Glucocorticoid receptor.
Series [18] has as its target T2, Glucocorticoid receptor. This is another data set of the same source.
Description: Agonist activity at glucocorticoid receptor in human foreskin fibroblasts assessed as inhibition of IL-1-induced IL-6 production by trans-repression assay

≈ marks a conversion by molar mass, not a printed value. Where only a bound is given, the exact number is not on record here.

As to `Cc1ccc(F)cc1C(C)(C)C[C@@](O)(Cc1cc2cnccc2[nH]1)C(C)(C)C`, the Activity result is listed as “Dose-dependent effect” in the series with Mus musculus [1]; -51% with Mus musculus [9]; -84% in the series with Mus musculus [12]; 25% with Mus musculus [13]; -27% in the series with Mus musculus [14]; 60% in the series on Mus musculus [15]. For the same compound, the IC50 (usually the concentration needed to halve the response being measured) at Progesterone receptor worked out at 290 nM; on Glucocorticoid receptor [17] it was 2 nM; at Glucocorticoid receptor [18], 27 nM. Besides, on Glucocorticoid receptor [2], the Emax at 2 µM was determined as 1%. Also, the clearance (usually the volume of plasma or blood freed of the substance per unit of time) in series [3] was 48 mL/min/kg. Further, in series [4], the MRT (commonly a mean duration of stay, worked out from the concentration-time curve) was determined as 1.38 h. The Cmax (as a rule, the highest concentration seen after dosing) in series [5] is 708 ng/mL. Further, the AUC(0-inf) – broadly, the area under the concentration-time curve extrapolated to infinity – in series [6] was 6730 ng·h/mL. For the same compound, in [7], the thermodynamic solubility – broadly, the concentration in solution at equilibrium with solid – was 15 µg/mL (≈ 39.2 µM). Besides, in series [8], the Papp B→A is 16.9 ×10⁻⁶ cm/s. Further, in the series with Mus musculus [10], the inhibition in vivo (in general, the relative decrease from the control value, in per cent) at 1 mg/kg was 82%. For the same compound, the values for the ED50 in the series on Mus musculus [11] and in the series on Mus musculus [16] were less than 1 mg/kg and 30 mg/kg, respectively.
